Measurements from ChEMBL document CHEMBL4316591, “Optimization of Pan-Pim Kinase Activity and Oral Bioavailability Leading to Diaminopyrazole (GDC-0339) for the Treatment of Multiple Myeloma” (J Med Chem, 2019).
In brackets after ≈: the same amount, converted by molar mass.

Experiments:
[1] = Oral bioavailability in mouse at 100 mg/kg by LC-MS/MS analysis; assay type: ADME, organism-based; conditions: in vivo
physchem = conditions: buffer, pH 6.5
[2] = Half life in mouse at 1 mg/kg, iv by LC-MS/MS analysis; assay type: ADME, organism-based; conditions: in vivo
[3] = Half life in Sprague-Dawley rat at 1 mg/kg, iv by LC-MS/MS analysis; assay type: ADME, organism-based; conditions: in vivo
[4] = Volume of distribution at steady state in cynomolgus monkey at 0.5 mg/kg by LC-MS/MS analysis; conditions: in vivo, read-out: Vdss
[5] = Volume of distribution at steady state in Sprague-Dawley rat at 1 mg/kg, iv by LC-MS/MS analysis; assay type: ADME, organism-based; conditions: in vivo, read-out: Vdss
[6] = Oral bioavailability in cynomolgus monkey at 1 mg/kg by LC-MS/MS analysis; assay type: ADME, organism-based, Macaca fascicularis; conditions: in vivo
[7] = Total clearance in mouse at 1 mg/kg, iv by LC-MS/MS analysis; assay type: ADME, organism-based; conditions: in vivo
[8] = Total clearance in cynomolgus monkey at 0.5 mg/kg, iv by LC-MS/MS analysis; assay type: ADME, organism-based, Macaca fascicularis; conditions: in vivo
[9] = Half life in cynomolgus monkey at 0.5 mg/kg by LC-MS/MS analysis; conditions: in vivo
in vivo [10] = conditions: Sprague-Dawley, rat, iv, 1 mg/kg
in vivo [11] = conditions: Sprague-Dawley, rat, po, 5 mg/kg
[12] = Oral bioavailability in cynomolgus monkey at 100 mg/kg by LC-MS/MS analysis; assay type: ADME, organism-based, Macaca fascicularis; conditions: in vivo
[13] = Oral bioavailability in mouse at 5 mg/kg by LC-MS/MS analysis by LC-MS/MS analysis; assay type: ADME, organism-based; conditions: in vivo
[14] = Volume of distribution at steady state in mouse at 1 mg/kg, iv by LC-MS/MS analysis; assay type: ADME, organism-based; conditions: in vivo, read-out: Vdss
[15] = Oral bioavailability in Sprague-Dawley rat at 100 mg/kg by LC-MS/MS analysis; assay type: ADME, organism-based; conditions: in vivo

solubility thermodynamic (physchem)	clearance (in vivo [10])	bioavailability (in vivo [11])	SMILES	further results
62 µM (≈ 29.6 µg/mL)	2 mL/min/kg	3%	CO[C@H]1C[C@H](N)CCN(c2c(NC(=O)c3nc(-c4c(F)cccc4F)sc3N)cnn2C)C1	
88 µM (≈ 40.9 µg/mL)			Cn1ncc(NC(=O)c2nc(-c3c(F)cccc3F)sc2N)c1C1CCC(N)C(F)CC1 (stereo not drawn)	
< 1 µM	7 mL/min/kg	38%	Cn1ncc(NC(=O)c2nc(-c3c(F)cccc3F)sc2N)c1N1CCCC(O)CC1 (stereo not drawn)	

Continued, compound first:

SMILES	solubility thermodynamic (physchem)	clearance (in vivo [10])	bioavailability (in vivo [11])	further results
Cn1ncc(NC(=O)c2nc(-c3c(F)cccc3F)sc2N)c1N1CC[C@@H](N)[C@H](F)CC1	67 µM (≈ 31.2 µg/mL)	8 mL/min/kg	33%	bioavailability [1]: 34%; half-life [2]: 0.9 h; half-life [3]: 1.8 h; Vd [4]: 5 L/kg; Vd [5]: 0.9 L/kg; bioavailability [6]: 35%; clearance [7]: 135 mL/min/kg; clearance [8]: 34 mL/min/kg; half-life [9]: 1.8 h; bioavailability [12]: 60%; bioavailability [13]: 11%; Vd [14]: 6.8 L/kg; bioavailability [15]: 28%
Cn1ncc(NC(=O)c2nc(-c3c(F)cccc3F)sc2N)c1[C@@]12CC[C@@H](N)[C@@H](CC1)O2	16 µM (≈ 7.37 µg/mL)	3 mL/min/kg	24%	
Cn1ncc(NC(=O)c2nc(-c3c(F)cccc3F)sc2N)c1N1CCC[C@H](NCC(F)(F)F)CC1	1 µM (≈ 0.53 µg/mL)			
Cn1ncc(NC(=O)c2nc(-c3c(F)cccc3F)sc2N)c1N1CCC[C@H](NCC(F)F)CC1	1 µM (≈ 0.512 µg/mL)			
